Test results as given in a compilation of properties of binary mixtures (doi:10.1016/j.molliq.2016.11.066).

Assay: xn = mol fraction of the nth substance listed
Conditions: 101 kPa

COCCO + CCCC[n+]1ccn(C)c1.F[P-](F)(F)(F)(F)F
x2 = 0
Conditions | speed of sound [m/s]
298.15 K | 1342.1
303.15 K | 1324.7
308.15 K | 1307.4
313.15 K | 1290.1
318.15 K | 1272.7
323.15 K | 1255.4

CCCC[n+]1ccn(C)c1.F[P-](F)(F)(F)(F)F + COCCO
speed of sound [m/s]
Conditions | x1 = 0.0966 | x1 = 0.1943 | x1 = 0.2887 | x1 = 0.3979 | x1 = 0.4792 | x1 = 0.5943 | x1 = 0.6753 | x1 = 0.8101 | x1 = 0.8849 | x1 = 1
298.15 K | 1365.5 | 1384.8 | – | 1407.6 | 1414.1 | – | 1427.3 | 1435.2 | – | 1443.8
303.15 K | 1349.4 | 1369.8 | 1383.3 | – | 1401.4 | 1409.8 | 1414.9 | 1422.8 | – | 1431.7
308.15 K | 1333.3 | 1354.5 | 1369 | – | 1388.8 | 1397.5 | – | 1411 | 1414.9 | 1419.8
313.15 K | 1317.6 | 1339.6 | 1355.1 | 1368.2 | 1376 | 1385.6 | – | 1399.3 | 1403.1 | 1408.2
318.15 K | 1301.5 | 1324.7 | 1341.4 | – | 1363.7 | 1373.6 | – | 1388 | 1391.8 | –
323.15 K | 1285.5 | 1310.1 | 1327.8 | 1343 | 1352.2 | 1362.1 | 1368.3 | 1377.2 | – | 1385.6
